Measurements taken from patent publication US20260209483A1, “RUBBER COMPOSITIONS COMPRISING ANTIDEGRADANTS” (FLEXSYS AMERICA L.P., priority 2022, published 2026).

Experiment: Oxidative induction time (OIT) by DSC, compound mixed with polyisoprene
Details: 0.5 wt % compound mixed with polyisoprene, isothermal 160 °C in O2, DSC; blank 1-2 minutes
Method: OIT is measured according to a procedure carried out in a differential scanning calorimeter (TA Instruments, Q200), also knows as DSC, and is used to predict thermo-oxidative performance of a material. In this procedure, each sample is held in a sample cell and heated under a nitrogen atmosphere to a preselected temperature.
0.5 wt % of a Compound of the Disclosure, or no antidegradant (blank) was mixed with polyisoprene and heated isothermally at 160° C. in O2.

Row | SMILES | Peak time of OIT testing [min]
1 | CC1=CC(C)(C)Nc2ccc(Cc3ccc4c(c3)C(C)=CC(C)(C)N4)cc21 [Compound 1-A, bis(2,2,4-trimethyl-1,2-dihydroquinolin-6-yl) methane] | 4.8
2 | CC1=CC(C)(C)Nc2c(C)cc(Nc3ccccc3)cc21 [Compound 1-B, 2,2,4,8-tetramethyl-N-phenyl-1,2-dihydroquinolin-6-amine] | 15.2
3 | CCC(C)Nc1ccc2[nH]ccc2c1 (stereo not shown) [Compound 1-C, N-(sec-butyl)-1H-indol-5-amine] | 19.2
4 | CC(C)CCC(C)Nc1ccc(NC(C)CCC(C)C)nc1 (stereo not shown) [Compound 1-E, N^2,N^5-bis(5-methylhexan-2-yl)pyridine-2,5-diamine] | 11.1
5 | Cc1cc(NC(C)C)cc2c1NCCC2(C)c1ccccc1 (stereo not shown) [Compound 1-F, N-isopropyl-4,8-dimethyl-4-phenyl-1,2,3,4-tetrahydroquinolin-6-amine] | 20.3
6 | CC1=CC(C)(C)Nc2ccc(NCc3ccco3)cc21 [Compound 1-H, N-(furan-2-ylmethyl)-2,2,4-trimethyl-1,2-dihydroquinolin-6-amine] | 10.7
7 | CC1=CC(C)(C)Nc2c1ccc(NC(C)CC(C)C)c2C (stereo not shown) [Compound 1-J, 2,2,4,8-tetramethyl-N-(4-methylpentan-2-yl)-1,2-dihydroquinolin-7-amine] | 2.6
8 | CC1CC(C)(C)Nc2ccc(Cc3ccc4c(c3)C(C)CC(C)(C)N4)cc21 (stereo not shown) [Compound 2-A, bis(2,2,4-trimethyl-1,2,3,4-tetrahydroquinolin-6-yl) methane] | 10.8
9 | Cc1cc(Nc2ccccc2)cc2c1NC(C)(C)CC2C (stereo not shown) [Compound 2-B, 2,2,4,8-tetramethyl-N-phenyl-1,2,3,4-tetrahydroquinolin-6-amine] | 17.8
10 | CCC(C)Nc1ccc2c(c1)CCN2 (stereo not shown) [Compound 2-C, N-(sec-butyl) indolin-5-amine] | 14.1
11 | CCC(CC)Nc1cc(C)c2c(c1)C(C)(c1ccccc1)CCN2 (stereo not shown) [Compound 2-F, 4,8-dimethyl-N-(pentan-3-yl)-4-phenyl-1,2,3,4-tetrahydroquinolin-6-amine] | 17.4
12 | Cc1c(NC(C)C)ccc2c1NCCC2(C)c1ccccc1 (stereo not shown) [Compound 2-J, N-isopropyl-4,8-dimethyl-4-phenyl-1,2,3,4-tetrahydroquinolin-7-amine] | 15.6
13 | CC(C)Nc1ccc(C(c2ccc(NC(C)C)cc2)c2ccco2)cc1 [Compound 3-A, 4,4′-(furan-2-ylmethylene)bis(N-isopropylaniline)] | 5.9
14 | Cc1cc(NC(C)C)cc2c1NC(c1ccccc1)CC2(C)c1ccccc1 (stereo not shown) [Compound 3-F, N-isopropyl-4,8-dimethyl-2,4-diphenyl-1,2,3,4-tetrahydroquinolin-6-amine] | 43.8
15 | CCOC(=O)C1=CC(C)(C(=O)OCC)Nc2ccc(Nc3ccccc3)cc21 (stereo not shown) [Compound 3-H, diethyl 2-methyl-6-(phenylamino)-1,2-dihydroquinoline-2,4-dicarboxylate] | 12.9
16 | Cc1cc(NC(C)C)cc2c1NC(C(C)C)CC2(C)c1ccccc1 (stereo not shown) [Compound 4-F, N,2-diisopropyl-4,8-dimethyl-4-phenyl-1,2,3,4-tetrahydroquinolin-6-amine] | 19.6
17 | c1coc(CNc2ccc(C(c3ccc(NCc4ccco4)cc3)c3ccco3)cc2)c1 [Compound 7-A, 4,4′-(furan-2-ylmethylene)bis(N-(furan-2-ylmethyl)aniline)] | 4.1

Row | SMILES | Peak time of OIT testing [min]
18 | COc1cc(Nc2ccccc2)cc2c1NC(C)(C)C=C2C [Compound 7-B, 8-methoxy-2,2,4-trimethyl-N-phenyl-1,2-dihydroquinolin-6-amine] | 31.0
19 | COC1=CC(=Nc2ccccc2)C=C2C(C)=CC(C)(C)N=C12 [Compound 7-D, 8-methoxy-2,2,4-trimethyl-N-phenylquinolin-6(2H)-imine] | 24.6
20 | c1coc(CNc2ccc(Cc3ccc(NCc4ccco4)cc3)cc2)c1 [Compound 8-A, 4,4′-methylenebis(N-(furan-2-ylmethyl)aniline)] | 2.9
21 | CC(C)Nc1ccc(Sc2ccc(NC(C)C)cc2)cc1 [Compound 11-A] | 2.5
22 | CC(C)Nc1ccc(C(c2ccccc2)c2ccc(NC(C)C)cc2)cc1 [Compound 16-A, 4,4′-(phenylmethylene)bis(N-isopropylaniline)] | 6.6
23 | CC(C)Nc1ccc(Cc2ccc(NC(C)C)cc2)cc1 [Compound 19-A, 4,4′-methylenebis(N-isopropylaniline)] | 2.7
24 | CC(Nc1ccc2[nH]ccc2c1)c1ccccc1 (stereo not shown) [Compound 19-C, N-(1-phenylethyl)-1H-indol-5-amine] | 6.9
25 | CC(Nc1ccc(Cc2ccc(NC(C)c3ccco3)cc2)cc1)c1ccco1 (stereo not shown) [Compound 20-A, 4,4′-methylenebis(N-(1-(furan-2-yl)ethyl)aniline)] | 2.3
26 | CC(Nc1ccc(Cc2ccc(NC(C)c3ccccc3)cc2)cc1)c1ccccc1 (stereo not shown) [Compound 21-A, 4,4′-methylenebis(N-(1-phenylethyl)aniline)] | 2.6
27 | CC(C)Nc1ccc(Oc2ccc(NC(C)C)cc2)cc1 [Compound 27-A] | 4.2
28 | CC1=CC(C)(C)Nc2cc3c(cc21)NC(C)(C)C=C3C [Compound 32-H, 2,2,4,7,7,9-hexamethyl-1,2,6,7-tetrahydropyrido[2,3-g]quinoline] | 6.6
29 | CC1CC(C)(C)Nc2cc3c(cc21)NC(C)(C)CC3C (stereo not shown) [Compound 33-H, 2,2,4,7,7,9-hexamethyl-1,2,3,4,6,7,8,9-octahydropyrido[2,3-g]quinoline] | 8.3
30 | Cc1cc(NC(C)C)cc2c1NCC(C)(C)C2 [Compound 47-F, N-isopropyl-3,3,8-trimethyl-1,2,3,4-tetrahydroquinolin-6-amine] | 3.2
31 | Cc1cc(NC(C)c2ccccc2)cc2c1NC(C)(C)CC2 (stereo not shown) [Compound 119-B, 2,2,8-trimethyl-N-(1-phenylethyl)-1,2,3,4-tetrahydroquinolin-6-amine] | 21.9
32 | CCOC(=O)C1=CC(C)(C(=O)OCC)Nc2c(C)cc(Nc3ccccc3)cc21 (stereo not shown) [Compound 120-B, diethyl 2,8-dimethyl-6-(phenylamino)-1,2-dihydroquinoline-2,4-dicarboxylate] | 11.5
33 | CC1=CC(C)(C)Nc2ccc(Sc3ccc4c(c3)C(C)=CC(C)(C)N4)cc21 [Compound 153-A, bis(2,2,4-trimethyl-1,2-dihydroquinolin-6-yl)sulfane] | 5.8
34 | Cc1cc(Cc2cc(C)c(NC(C)C)c(C)c2)cc(C)c1NC(C)C [Compound 154-A, 4,4′-methylenebis(N-isopropyl-2,6-dimethylaniline)] | 1.5
